The text below walks through data of publication PMC8769378, “Underlining the Importance of Peripheral Protic Functional Groups to Enhance the Proton Exchange of Gd-Based MRI Contrast Agents” (Inorganic Chemistry, 2021).

The nature of data set [1]: Acid-assisted dissociation kinetics of Gd^III complexes followed by ^1H NMR relaxometry.
Excerpt: In order to investigate the kinetic inertness of the Gd^III complex, the dissociation reactions of GdL2 were followed by ^1H NMR relaxometry (21 MHz and 298 K) in the presence of large acid excess ([HCl] = 0.01–1.0 M) to guarantee the pseudo-first-order kinetic conditions.
The kinetic inertness of the GdL2 was characterized by the rates of the dissociation reactions taking place in 0.01–1.0 M HCl solution. The dissociation reactions of the GdL2 were followed by measuring the longitudinal relaxation time of H2O protons (T1) with a Stelar relaxometer connected to a Bruker WP80 NMR electromagnet adapted to variable-field measurements (15–80 MHz proton Larmor frequency). The temperature was controlled with a Stelar VTC-91 airflow heater equipped with a calibrated copper–constantan thermocouple (uncertainty of ±0.1 °C). Measures were carried out at 21 MHz and 25 °C. The longitudinal relaxation time (T1) was measured with the “inversion recovery” method (180° – τ – 90°) by using 16 different τ values with a typical 90° pulse width of 6.5 μs, 4 scans. The measurements were performed with a 1 mM solution of the GdL2 complex. The relaxivity values were given as r1 = 1/T1p + 1/T1w where T1p and T1w are the relaxation times of the bulk water protons in the presence and absence of GdL2. The pseudo-first-order rate constants (kd) were calculated by fitting the relaxation rate (r1 = 1/T1p) data to eq 4. […] 4 where rr and rv are the relaxivity values of the reactants and the product (Gd^3+: r1p = 12.85 (2) mM^–1 s^–1, 21 MHz, 25 °C) and rt is the measured relaxivity at reaction time t. The temperature was maintained at 25 °C, and the ionic strength of the solutions was kept constant at [H^+] ≤ 0.15 M, [HCl] + [NaCl] = 0.15 M. The calculation of the kinetic parameters was performed by the fitting of the absorbance–time and relaxation rate–time data pairs with the Micromath Scientist computer program (version 2.0, Salt Lake City, UT).
Kinetic inertness of GdL2
In order to investigate the kinetic inertness of GdL2, the dissociation reactions of GdL2 were followed
by 1H-NMR relaxometry in the presence of large acid excess ([HCl]= 0.01 – 1.0 M) to guarantee the
pseudo-first-order kinetic conditions. The R1obs values as a function of time for the dissociation
In the presence of HCl excess, the dissociation of GdL2 can be treated as a pseudo-first-order process
and the rate of the reaction can be expressed by Eq. (S7)
where kd is a pseudo-first-order rate constant, [GdL]t and [GdL]tot are the concentrations of the GdL
species at time t and the total concentration of the complex, respectively. The rates of the dissociation
reactions were determined at different concentrations of HCl ([HCl]=0.01 – 1.0 M).
The proton assisted dissociation
of GdL2 might occur by the equilibrium formation of a protonated *Gd(H2L2) intermediate (Eq.
(S8)), which dissociates spontaneously (Eq. (S9)).
Gd(HL2) + H Gd(H2L2) (S8)
Data set [2] can be described thus: Fit of relaxivity vs pH profiles: proton exchange kinetic and relaxation parameters. The class given is physicochemical. To be noted: 0.15 M NaCl, 298 K. The protocol:
At pH >3, the r1 values of GdL2 decrease with the increase of pH from 6.6 mM^–1 s^–1 to reach a plateau of 5.1 mM^–1 s^–1 around pH = 7.5. A further increase of the pH results in the slight increase of r1 reaching a maximum around pH = 9.5. Finally, at pH >9.5, another small decrease in r1 is observed. On the other hand, in the case of GdL1, the r1 values are independent from the pH in the range 4.0–7.5, whereas at pH >8.0, r1 increases up to 5.2 mM^–1 s^–1. The r1 values of GdL1 were measured in the pH range 4–10 in order to avoid the hydrolysis of the methyl ester. […] Then, the overall relaxivity, r1, is given by eq 1: [drawing 1] 1 where r1^is, r1^os, and r1^pr are the relaxivity components due to the inner and outersphere water molecules and the −OH group, respectively. r1^pr can be expressed as follows:[26]−[28] [drawing 2] 2
According to the proposed reaction mechanism, the rate of acid-catalyzed proton exchange of GdL2 and Gd(HL2) is vH = kH[H3O^+][GdL2] and vH = kH[H3O^+][Gd(HL2)], where the kH rate constant characterizes the acid-catalyzed proton exchange processes of GdL2 and Gd(HL2) species. Because of the fast internal rearrangement, the alcoholic −OH and −COOH protons cannot be distinguished, and their lifetime is τp = (kH[H^+])^−1 in both cases. The rate of the base-catalyzed exchange between the alcoholic −OH proton of GdL1 and GdL2 and the bulk is vOH = kOH[OH^–][GdL] and τp = (kOH [OH^–])^−1, where the rate constant kOH characterizes the base-catalyzed proton exchange process for GdL1 and GdL2. Both acid- and base-catalyzed exchange mechanisms require the diffusion-controlled formation of an H-bonded complex and subsequently the rapid separation of the corresponding conjugate acid and base.[29] By considering the proposed reaction mechanism, eq 2 can be rewritten as follows: [drawing 3] 3 where αH = KGdLH–1[H^+] + KGdHLKGdLH–1[H^+]^2, ^GdHLr1^is+os, ^GdLr1^is+os, and ^GdLH–1r1^is+os are the sum of r1^is and r1^os for GdHL, GdL, and GdLH–1 species, respectively. Whereas for GdL2 the experimental data (Figure 1) were fitted to eq 3 (Table 2), in the case of GdL1, eq 3 was modified to account for the formation of GdL1 and Gd(L1)H–1 species and the base-catalyzed exchange of the −OH proton. Thus, the first and fourth terms and kH[H^+] of the denominator in the last term in the brackets were not considered.
Proton relaxation measurements (1/T1) and the resulting 1/T1 NMRD profiles were measured on a fast-field cycling (FFC) Stelar SmarTracer relaxometer over a continuum of magnetic field strengths from 0.000 24 to 0.25 T (corresponding to 0.01–10 MHz proton Larmor frequencies). The relaxometer operates under computer control with an absolute uncertainty in 1/T1 of ±1%. […] Furthermore, the real temperature inside the probe head was additionally monitored by a Fluke 52 k/j digital thermometer (Fluke, Zürich, Switzerland). The gadolinium concentration was determined by measuring the bulk magnetic susceptibility shifts of the t-BuOH ^1H NMR signal. Additional data in the 20–120 MHz frequency range were obtained with a high field relaxometer (Stelar) equipped with the HTS-110 3T metrology cryogen-free superconducting magnet. […] The pH-dependent relaxivity measurements of GdL1 and GdL2 complexes were carried out by direct titration of the samples (GdL2, 3.0 < pH < 12.5; GdL1, 4 < pH < 10). The pH was adjusted by the stepwise addition of concentrated NaOH or HCl solution. […]

Molecules are shown by their SMILES.

Consider `O=C([O-])CN1CCN(CC(=O)[O-])CCN(CC(O)C(=O)O)CCN(CC(=O)[O-])CC1.[Gd+3]` (centres unmarked) [GdL2], for which the “kd at pH = 7.4” value in data set [1] (calculated from acid-assisted dissociation only, pH = 7.4, 298 K, comparators from literature constants) is reported as 9.01 × 10^–12 s^–1. In addition, in data set [1] (k1 = kGdH2L × K^HGd(HL), [HCl] = 0.01–1.0 M, 298 K), the “k1 (acid-catalyzed dissociation rate constant)” value is reported as “(2.3 ± 0.1) × 10^–4 M^–1 s^–1”. Moreover, in data set [1] (protonation constant of GdHL from kinetic data, 298 K), the “K^HGdL” value is given as 0.5 ± 0.1 (GdHL) M^–1. Moreover, in data set [2] (20 MHz), the “^GdHLr1^is+os” value was determined as 5.11 ± 0.08 mM^–1 s^–1, the “^GdLH–1r1^is+os” value worked out at 4.93 ± 0.03 mM^–1 s^–1 and the “^GdLr1^is+os” value amounted to 4.85 ± 0.04 mM^–1 s^–1. In data set [2] (acid-catalyzed proton exchange), the “kH × 10^–11” value was 1.5 ± 0.2 M^–1 s^–1. For the same compound, in data set [2] (base-catalyzed proton exchange), the “kOH × 10^–10” value came out at 0.17 ± 0.04 M^–1 s^–1.
